Measured values published in PMC11671014 (PLOS Pathogens, 2024).
Values joined by “and” are separate entries in the source; they are usually repeats but may differ in a detail not shown here. Equal entries are not always repeated. Where two headings read alike, the source gives them in different places.

How the values were obtained:
[1] = system: P. vivax Brazilian field isolates; test: Ex vivo drug susceptibility of Brazilian field isolates (P. vivax); format: cell-based; details: Plasmodium vivax
Procedure: Compounds were assayed on ten P. vivax isolates and seven P. falciparum Brazilian isolates collected from mono-infected patients, who had signed a written informed consent form to participate in the study, using previously described methods. The initial parasitemia ranged from 2,100–8,000 parasites/μL for P. vivax and 3,500–9,000 parasites/μL for P. falciparum isolates. Artesunate and chloroquine were assayed in parallel as standard compounds. The analyses included only the isolates that were incubated for ≥ 40 h with the compounds.

[2] = system: stage V NF54 strain male and female gametocytes; test: P. falciparum Dual Gamete Formation Assay (PfDGFA); format: cell-based; details: Plasmodium falciparum, 48 h
Procedure: Inhibition of the viability of stage V male and female gametocytes was assessed in the P. falciparum Dual Gamete Formation Assay (PfDGFA) as described previously. Briefly, mature stage V NF54 strain gametocytes were incubated with test molecules for 48 h in 384-well plates at 37°C. Gametogenesis was then triggered by cooling the plates to room temperature and addition of xanthurenic acid-containing activating medium (also containing anti-Pfs25 antibody (Mab 4B7) conjugated to a Cy3 fluorophore). Twenty minutes after activation, exflagellation was imaged in all wells of the plate using a x4 objective and automated brightfield microscopy. The plate was then incubated at 20°C for a further 24 h in the dark. Thereafter, female gamete formation was quantified by automated identification of Pfs25-positive cells. Automated counts were transformed to percent inhibition values with reference to positive 100 nM Cabamiquine (DDD498) and negative (DMSO) controls. Data represent the means of multiple independent biological repeats.

[3] = system: P. falciparum (strain 3D7A); test: Parasite Reduction Rate (PRR) estimation; format: cell-based, Plasmodium falciparum; details: 10 x IC50
Procedure: PRR was assessed using a standardized method. P. falciparum (strain 3D7A, MRA-151), contributed by David Walliker, was obtained through BEI Resources, NIAID, NIH. Cultures of parasites (~90% ring stage) were treated with compounds for 120 h, with daily renewal. Samples of parasites were taken at 0, 24, 48, 72, 96 and 120 h. Compounds were washed out and four independent 3-fold serial dilutions were established in 96-well plates, with fresh RBCs and culture medium. After 18 days, and again at 22 days, samples were taken to examine growth using SYBR Green I in an EnVision Multilabel Plate Reader (Perkin Elmer) and analysed using Excel and Grafit 5.0 software. The human biological samples were sourced ethically, and their research use was in accord with the terms of the informed consents under an IRB/EC approved protocol.

Solubility = format: physicochemical
Caco-2 permeability = format: in vitro ADME; details: human
Procedure: Permeability studies were performed as described previously. In brief, Caco-2 cells were cultured for 21–25 days to differentiate them into enterocyte-like cells. The transepithelial electrical resistance (TEER) was measured to ensure tight junction formation and cells with TEER value more than 250 ohms.cm^2 were used in the study. On the day of the transport study, cells were washed with warm HBSS buffer and equilibrated with buffer for 60 min. ML471 was added at a concentration of 5 μM (containing 50 μM Lucifer Yellow) into a 24 Transwell cell plate (apical 210 μL and basal 1000 μL) and buffer was added in the receiver side. Cells were incubated at 37°C for 60 min and 120 μL aliquots were taken from the receiver side after 30 and 60 min. Samples were mixed with 100 nM carbutamide in acetonitrile (ACN) containing 0.1% formic acid (internal standard). Samples were centrifuged at 2,056 x g for 10 min and the supernatant was collected and analyzed for quantification of the test article by LC-MS [49].

[4] = Blood exposure in the P. falciparum infected SCID mouse model; format: in vivo, NODscidIL2Rγ^null mice engrafted with human RBCs; details: for Cmax / Tmax / AUC(0-t): female, mouse, whole blood, po
Procedure: The model using P. falciparum Pf3D7^0087/N9 in NODscidIL2Rγ^null mice engrafted with human RBCs was adapted from a previously described procedure. Female NODscidIL2Rγ^null mice were purchased from Charles River (Germany). Briefly, two engrafted mice/dosing group (females, 20–22 g) were infected intravenously with 2 x 10^7 P. falciparum (Pf3D7^0087/N9) on day 0. The antimalarial efficacy was assessed following administration (p.o.) of 100 or 200 mg/kg of compound or of 4 daily doses of 50 mg/kg, initiated on day 3 post-infection. The effect on blood parasitemia was measured by microscopic analysis of Giemsa-stained blood smears (on days 3, 4, 5, 6 and 7 post-infection). Mice were euthanized on day 7. Animal were monitored for symptoms of acute toxicity, including decreased activity, sunken flanks, ataxia and blood in faeces.
On day 3, blood samples (20 μL) were obtained at time points up to 24 h after the first administration. Protein was precipitated with acetonitrile and the remaining compound was assessed by LC-MS/MS in the selected reaction monitoring mode using HESI ionization in positive ion mode.

[5] = system: stage V NF54 strain male and female gametocytes; set-up: method as in ref [1] Xie et al., Science 2022; details: 48 h, ref [1] Xie et al., Science 2022, cited from earlier work
[6] = female, read-out: Dual gamete formation assay (female) IC50(48h)
[7] = male, read-out: Dual gamete formation assay (male) IC50(48h)
[8] = 1 x 100 mg/kg p.o., mice M1, M2
[9] = 1 x 200 mg/kg p.o., mice M3, M4
[10] = 4 days x 50 mg/kg p.o., after first dose, blood
[11] = 4 days x 50 mg/kg p.o., mice M1, M2

SMILES: CC(C)c1nn([C@@H]2O[C@H](COS(N)(=O)=O)[C@@H](O)[C@H]2O)c2ncnc(N)c12 [ML471, ((2R,3S,4R,5R)-5-(4-amino-3-isopropyl-1H-pyrazolo[3,4-d]pyrimidin-1-yl)-3,4-dihydroxytetrahydrofuran-2-yl)methyl sulfamate]
- EC50 ([1]; range over n = 10 isolates, read-out: EC50 range, P. vivax Brazilian field isolates): 1.2 to 62 nM
- EC50 ([1]; read-out: Median EC50, P. vivax Brazilian field isolates): 8 nM
- IC50 [2, 6]: 260 nM
- IC50 [2, 7]: 49 nM
- Lag phase [3]: 0 h
- Log PRR [3]: 4.1
- PCT99.9% [3]: 32 h
- Slope [3]: -0.09
- solubility (Solubility): > 100 µM
- Papp A→B at 60 min, 5 μM (Caco-2 permeability; 5 μM, 60 min, second figure of the cell, read-out: Caco2 Papp (A to B)): 0.17 ×10⁻⁶ cm/s
- Papp B→A at 60 min, 5 μM (Caco-2 permeability; 5 μM, 60 min, third figure of the cell, read-out: Caco2 Papp (B to A)): 1.3 ×10⁻⁶ cm/s
- efflux ratio at 60 min, 5 μM (Caco-2 permeability; equals B to A / A to B, read-out: Caco2, first figure of the cell, not given): 7.6
- AUC0-120h/dose (mean) ([4]; 1 x 100 mg/kg p.o., blood): 2,500 (h*ng/mL)/(mg/kg)
- Cmax/dose (mean) ([4]; 1 x 100 mg/kg p.o., blood): 33.5 (ng/mL)/(mg/kg)
- AUC0-120h (individual mice) [4, 8]: 260,000 h*ng/mL
- AUC0-120h/dose (individual mice) [4, 8]: 2,390 (h*ng/mL)/(mg/kg) and 2,600 (h*ng/mL)/(mg/kg)
- Cmax (individual mice) [4, 8]: 3,600 ng/mL
- Cmax/dose (individual mice) [4, 8]: 31 (ng/mL)/(mg/kg) and 36 (ng/mL)/(mg/kg)
- AUC0-120h/dose (mean) ([4]; 1 x 200 mg/kg p.o., blood): 1,070 (h*ng/mL)/(mg/kg)
- Cmax/dose (mean) ([4]; 1 x 200 mg/kg p.o., blood): 18.8 (ng/mL)/(mg/kg)
- AUC0-120h (individual mice) [4, 9]: 259,000 h*ng/mL
- AUC0-120h/dose (individual mice) [4, 9]: 855 (h*ng/mL)/(mg/kg) and 1,290 (h*ng/mL)/(mg/kg)
- Cmax (individual mice) [4, 9]: 4,180 ng/mL
- Cmax/dose (individual mice) [4, 9]: 16.7 (ng/mL)/(mg/kg) and 20.9 (ng/mL)/(mg/kg)
- AUC0-24h/dose (mean) [4, 10]: 422 (h*ng/mL)/(mg/kg)
- Cmax/dose (mean) [4, 10]: 19.3 (ng/mL)/(mg/kg)
- AUC0-24h (individual mice) [4, 11]: 22,572 h*ng/mL
- AUC0-24h/dose (individual mice) [4, 11]: 451 (h*ng/mL)/(mg/kg) and 392 (h*ng/mL)/(mg/kg)
- Cmax (individual mice) [4, 11]: 1,040 ng/mL
- Cmax/dose (individual mice) [4, 11]: 17.8 (ng/mL)/(mg/kg) and 20.8 (ng/mL)/(mg/kg)
- Tmax (individual mice) [4, 11]: 24 h
- Cmax ([4]; NODscidIL2Rγ^null, 50 mg/kg, 4 days x 50 mg/kg p.o., after first dose, blood, read-out: Cmax (mean)): 964 ng/mL
- Tmax ([4]; NODscidIL2Rγ^null, 50 mg/kg, 4 days x 50 mg/kg p.o., after first dose, blood, read-out: Tmax (mean)): 15 h
- AUC(0-t) ([4]; NODscidIL2Rγ^null, 50 mg/kg, 4 days x 50 mg/kg p.o., mice M1, M2, read-out: AUC0-24h (individual mice)): 19.6 µg·h/mL
- Cmax ([4]; NODscidIL2Rγ^null, 50 mg/kg, 4 days x 50 mg/kg p.o., mice M1, M2, read-out: Cmax (individual mice)): 888 ng/mL
- Cmax ([4]; NODscidIL2Rγ^null, 100 mg/kg, 1 x 100 mg/kg p.o., blood, read-out: Cmax (mean)): 3350 ng/mL
- Tmax ([4]; NODscidIL2Rγ^null, 100 mg/kg, 1 x 100 mg/kg p.o., blood, read-out: Tmax (mean)): 5 h
- AUC(0-t) ([4]; NODscidIL2Rγ^null, 100 mg/kg, 1 x 100 mg/kg p.o., mice M1, M2, read-out: AUC0-120h (individual mice)): 239 µg·h/mL
- Cmax ([4]; NODscidIL2Rγ^null, 100 mg/kg, 1 x 100 mg/kg p.o., mice M1, M2, read-out: Cmax (individual mice)): 3100 ng/mL
- Tmax ([4]; NODscidIL2Rγ^null, 100 mg/kg, 1 x 100 mg/kg p.o., mice M1, M2, read-out: Tmax (individual mice)): 4 h
- Cmax ([4]; NODscidIL2Rγ^null, 200 mg/kg, 1 x 200 mg/kg p.o., blood, read-out: Cmax (mean)): 3760 ng/mL
- Tmax ([4]; NODscidIL2Rγ^null, 200 mg/kg, 1 x 200 mg/kg p.o., blood, read-out: Tmax (mean)): 4 h
- AUC(0-t) ([4]; NODscidIL2Rγ^null, 200 mg/kg, 1 x 200 mg/kg p.o., mice M3, M4, read-out: AUC0-120h (individual mice)): 171 µg·h/mL
- Cmax ([4]; NODscidIL2Rγ^null, 200 mg/kg, 1 x 200 mg/kg p.o., mice M3, M4, read-out: Cmax (individual mice)): 3340 ng/mL
- Tmax ([4]; NODscidIL2Rγ^null, 200 mg/kg, 1 x 200 mg/kg p.o., mice M3, M4, read-out: Tmax (individual mice)): 4 h
- AUC(0-t) ([4]; NODscidIL2Rγnull engrafted with human RBCs, 50 mg/kg, 4 x 50 mg/kg p.o., at 24 h after the first dose, read-out: AUC0-24h): 54 µM·h
- AUC(0-t) ([4]; NODscidIL2Rγnull engrafted with human RBCs, 50 mg/kg, 4 days x 50 mg/kg p.o., after first dose, blood, read-out: AUC0-24h (mean)): 21.1 µg·h/mL
- AUC(0-t) ([4]; NODscidIL2Rγnull engrafted with human RBCs, 100 mg/kg, 1 x 100 mg/kg p.o., blood, read-out: AUC0-120h (mean)): 250 µg·h/mL
- AUC(0-t) ([4]; NODscidIL2Rγnull engrafted with human RBCs, 100 mg/kg, single dose 100 mg/kg p.o., read-out: AUC0-120h): 640 µM·h
- AUC(0-t) ([4]; NODscidIL2Rγnull engrafted with human RBCs, 200 mg/kg, 1 x 200 mg/kg p.o., blood, read-out: AUC0-120h (mean)): 215 µg·h/mL
- AUC(0-t) ([4]; NODscidIL2Rγnull engrafted with human RBCs, 200 mg/kg, single dose 200 mg/kg p.o., read-out: AUC0-120h): 550 µM·h

SMILES: Nc1ncnc2c1c(OC(F)F)nn2[C@@H]1O[C@H](COS(N)(=O)=O)[C@@H](O)[C@H]1O [ML901]
- IC50 [5, 6]: 4700 nM
- IC50 [5, 7]: 130 ± 10 nM
